Experimental findings from patent US10098897B2, “Methods and materials for reducing development of stenosis of arteriovenous fistulas” (Mayo Foundation for Medical Education and Research, priority 2014, dated 2018) are described below.

Each structure is given as a SMILES string.

This assay relates to Iex-1. The experiment in a line: Iex-1 gene expression by qRT-PCR in hypoxic NIH 3T3 fibroblasts. The format is cell-based, mouse. The source says: To determine the expression of Iex-1 and Vegf-A in vitro, NIH 3T3 cells (ATCC, Manassas, Va.) were used and subjected to hypoxia and normoxia for different lengths of time as described elsewhere (Yang et al., Kidney Int., 85:289-306 (2014) and Janardhanan et al., Kidney Int., 84:338-52 (2013)). Cells were harvested for qRT-PCR analysis.
Cells or tissue were stored in a RNA stabilizing/cell lysis solution (Qiagen, Gaithersburg, Md.) (Yang et al., Kidney Int., 85:289-306 (2014) and Janardhanan et al., Kidney Int., 84:338-52 (2013)). Specimens were homogenized, and total RNA was extracted and isolated via the miRNEasy Mini kit (Qiagen). Culture cells were trypsinized and stored in Qiazol lysis regent and processed using the RNEasy Mini kit.
Gene expression was quantified using qRT-PCR as described elsewhere (Yang et al., Kidney Int., 85:289-306 (2014) and Janardhanan et al., Kidney Int., 84:338-52 (2013)).
(In general: In qPCR the cycle at which signal appears reflects the starting amount.)

Regarding `C=C1/C(=C\C=C2/CCC[C@]3(C)[C@@H]([C@H](C)CCCC(C)(C)O)CC[C@@H]23)C[C@@H](O)C[C@@H]1O` [calcitriol], the “average decrease in Iex-1 expression vs. controls” value (1 μM calcitriol, hypoxic fibroblasts, 24 hours, control PBS alone) is given as 56%. In addition, the “average Iex-1 expression (qRT-PCR)” value (1 μM calcitriol, hypoxic fibroblasts, 24 hours, control 8.62+1.52) is reported as 3.84+2.2. For the same molecule, the “optimal dose of calcitriol required to reduce Iex-1 expression” value (determined using a dose response curve) worked out at 1 µM.
